Where a chain is given by its changes, count along the chain named.
Experiments:
[1] = biological target: T1, human ALDH2*2 recombinant mutant enzyme (E487K) (Homo sapiens, UniProt P05091, E504K); test: ALDH2 enzymatic assay (NADH at 340 nm), recombinant mutant enzyme; type: biochemical; parameters: key: −: no activation or inhibition; +: activation less than control 1; ++: activation similar to control 1, within 10%; +++: activation more than control 1 and less than control (compound 161); ++++: activation similar to compound 161, within 10%; conditions: activation relative to benchmarks control 1 and compound 161
T1 construct: His-tag (pTrcHis vector) (N); made in house; host or cells: E. coli BL21
T1 sequence (P05091 18-517 E504K): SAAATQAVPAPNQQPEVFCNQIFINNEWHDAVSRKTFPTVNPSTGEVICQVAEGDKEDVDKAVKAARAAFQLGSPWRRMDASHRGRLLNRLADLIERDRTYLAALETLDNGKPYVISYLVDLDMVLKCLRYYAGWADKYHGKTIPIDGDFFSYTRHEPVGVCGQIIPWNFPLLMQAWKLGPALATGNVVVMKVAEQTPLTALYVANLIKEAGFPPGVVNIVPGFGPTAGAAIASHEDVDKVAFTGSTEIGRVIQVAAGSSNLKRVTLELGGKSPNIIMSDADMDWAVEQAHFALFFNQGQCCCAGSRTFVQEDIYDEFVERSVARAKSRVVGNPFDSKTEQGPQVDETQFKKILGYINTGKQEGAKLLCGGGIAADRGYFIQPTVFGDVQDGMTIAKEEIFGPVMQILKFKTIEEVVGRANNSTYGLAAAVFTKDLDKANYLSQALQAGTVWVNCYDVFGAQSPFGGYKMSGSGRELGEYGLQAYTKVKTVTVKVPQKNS
Text: (§1) ALDH2 catalyzes the oxidative reaction of substrate acetaldehyde to acetic acid using NAD^+ as a cofactor. Enzymatic activity, or catalytic rate, of aldehyde dehydrogenase (ALDH2) can be measured spectrophotometrically at UV wavelength λ340 nm by the accumulation of reduced product NADH derived from NAD^+. […] This method is well-established in the literature [e.g. D. K. Rex, W. F. Bosron, J. E. Smialek, T. K. Li, Alcohol Clin Exp Res 9, 147 (1985)].
(§2) Full-length wild type human ALDH2 cDNA was purchased from ATCC (No. MGC-1806. GenBank ID: BC002967). The 18-amino acid mitochondria transport signal sequence was removed by PCR and cloned into the NheI/HindIII sites of a His-tag vector, pTrcHis, using standard molecular cloning techniques. The human ALDH2* cDNA construct containing the Asian E487K mutation was obtained by site-directed mutagenesis to create the E487K substitution of the wild type ALDH2. Both human clones were designed to express a recombinant protein with the His-tag at the N-terminus of the protein. For the co-expression experiments of human ALDH2 wild type and ALDH2*2 heterotetramers, a wild type ALDH2 gene and a ALDH2 E487K gene were inserted separately into the two multiple cloning sites of pETDuet-1 vector. (Novagen, Calif., USA). All the vectors were transformed into BL21 E. coli host cells and subjected to 0.5 mM IPTG induction for protein expression at 30° C. Purifications of the recombinant proteins by affinity nickel columns (HisTrap, GE Healthy Science, USA) were carried out using standard protocols according to manufacturer's instructions (Novagen, USA).
(§3) Control 1 and compound 161 are used as benchmarks and the symbols have the following representation: […]

human ALDH2 wild type = biological target: T2, human ALDH2 wild type (Homo sapiens, UniProt P05091); test: ALDH2 enzymatic assay (NADH at 340 nm), recombinant wild type enzyme; type: biochemical; parameters: key: −: no activation or inhibition; +: activation less than control 1; ++: activation similar to control 1, within 10%; +++: activation more than control 1 and less than control (compound 161); ++++: activation similar to compound 161, within 10%; conditions: activation relative to benchmarks control 1 and compound 161
T2 construct: His-tag (pTrcHis vector) (N); made in house; host or cells: E. coli BL21
T2 sequence (P05091 18-517): T1 sequence (P05091 18-517 E504K) with K487E
Text: as §1, §2, §3

Row | SMILES | ALDH2 (mutant) [1] | ALDH2 (wild-type) (human ALDH2 wild type)
1 | COc1ccc(CNC(=O)c2c(Cl)cccc2OCC2CC2C)cc1F (stereo not drawn) [Compound 152] | +++ | +++
2 | O=C(NCc1ccc(F)c(F)c1)c1c(Cl)cccc1Br [Compound 153] | + | +
3 | COc1ccc(CNS(=O)(=O)c2c(Cl)cccc2Cl)cc1F [Compound 154] | + | +
4 | O=C(NCc1ccc(F)c(F)c1)c1c(Cl)cccc1OCC1CC1 [Compound 155] | ++ | +
5 | O=S(=O)(NCc1ccc(F)c(F)c1)c1c(Cl)cccc1Cl [Compound 156] | + | −
6 | COc1ccc(CNC(=O)c2c(Cl)ccnc2Cl)cc1F [Compound 157] | ++ | ++
7 | COC(=O)c1cccc(Oc2cccc(Cl)c2C(=O)NCc2ccc(OC)c(F)c2)c1 [Compound 158] | + | ++
8 | COc1ccc(CNC(=O)c2c(Cl)cccc2NCC(C)O)cc1F (stereo not drawn) [Compound 159] | ++ | ++
9 | COc1ccc(CNC(=O)c2c(Cl)ccnc2NCC2CC2)cc1F [Compound 160] | ++ | ++
10 | COc1ccc(CNC(=O)c2c(OCC3CC3)ccnc2OCC2CC2)cc1F [Compound 162] | ++ | +
11 | COc1ccc(CNS(=O)(=O)c2c(Cl)cccc2NCC2CC2)cc1F [Compound 163] | + | +
12 | COc1ccc(CNS(=O)(=O)c2c(Cl)cccc2OCC2CC2)cc1F [Compound 164] | + | +
13 | COc1ccc(CNC(=O)c2c(Cl)cccc2OCCN(C)C)cc1F [Compound 165] | ++ | ++
14 | COc1ccc(CNC(=O)c2c(Cl)cccc2OCC(C)N(C)C)cc1F (stereo not drawn) [Compound 166] | ++ | ++
15 | COc1ccc(CNC(=O)c2c(Cl)cccc2OCC(C)(C)N(C)C)cc1F [Compound 167] | + | +
16 | COc1ccc(CNC(=O)c2c(Cl)cc[n+]([O-])c2Cl)cc1F [Compound 168] | + | +
17 | COc1ccc(CNC(=O)c2c(OCC3CC3)ccnc2Cl)cc1F [Compound 170] | +++ | ++
18 | COc1cc(CNC(=O)c2c(Cl)ccnc2Cl)ccc1F [Compound 171] | − | −
19 | COc1cc(CNC(=O)c2c(Cl)ccnc2OCC2CC2)ccc1F [Compound 172] | + | +
20 | COc1c(F)cc(CNC(=O)c2c(Cl)ccnc2Cl)cc1F [Compound 173] | ++ | +
21 | COc1ccc(CNC(=O)c2c(Cl)ccnc2Cl)c(F)c1F [Compound 174] | ++ | +
22 | O=C(NCc1ccc(OC(F)(F)F)c(F)c1)c1c(Cl)ccnc1Cl [Compound 175] | ++ | +
23 | COc1cc(F)c(CNC(=O)c2c(Cl)ccnc2Cl)cc1F [Compound 176] | ++ | ++
24 | CC(C)Oc1ccc(CNC(=O)c2c(Cl)ccnc2Cl)cc1F [Compound 177] | − | −

Row | SMILES | ALDH2 (mutant) [1] | ALDH2 (wild-type) (human ALDH2 wild type)
25 | COc1ccc(CNC(=O)c2c(Cl)ccnc2OCC2(C)CC2)cc1F [Compound 178] | ++++ | ++++
26 | COc1ccc(CNC(=O)c2c(Cl)ccnc2OCC2CC2)c(F)c1F [Compound 179] | ++ | +
27 | O=C(NCc1ccc(F)c(F)c1)c1c(Cl)ccnc1OCC1CC1 [Compound 180] | + | +
28 | COc1ccc(CNC(=O)c2c(Cl)ccnc2NCC(C)C)cc1F [Compound 182] | ++ | +
29 | COc1ccc(CNC(=O)c2c(Cl)ccnc2OCC(C)C)cc1F [Compound 183] | ++ | ++
30 | COc1ccc(CNC(=O)c2c(Cl)ccnc2OCCN(C)C)cc1F [Compound 184] | ++ | +
31 | COc1ccc(CNC(=O)c2c(Cl)ccnc2NCC(C)O)cc1F (stereo not drawn) [Compound 185] | + | +
32 | O=C(NCc1ccc(OC(F)(F)F)c(F)c1)c1c(Cl)ccnc1OCC1CC1 [Compound 187] | ++ | +
33 | CC(C)Oc1ccc(CNC(=O)c2c(Cl)ccnc2OCC2CC2)cc1F [Compound 188] | − | −
34 | CC(C)Oc1ccc(CNC(=O)c2c(Cl)ccnc2NCC2CC2)cc1F [Compound 189] | + | −
35 | COc1cc(F)c(CNC(=O)c2c(Cl)ccnc2OCC2CC2)cc1F [Compound 190] | ++++ | ++++
36 | O=C(NCc1ccc(OC(F)(F)F)c(F)c1)c1c(Cl)ccnc1NCC1CC1 [Compound 191] | + | +
37 | COc1ccc(CNC(=O)c2c(Cl)ccnc2OC)cc1F [Compound 192] | +++ | +++
38 | CCOc1nccc(Cl)c1C(=O)NCc1ccc(OC)c(F)c1 [Compound 193] | ++ | ++
39 | CCCOc1nccc(Cl)c1C(=O)NCc1ccc(OC)c(F)c1 [Compound 194] | +++ | +
40 | COc1ccc(CNC(=O)c2c(Cl)ccnc2OC(C)C)cc1F [Compound 195] | ++ | ++
41 | COc1ccc(CNC(=O)c2c(Cl)ccnc2OC2CC2)cc1F [Compound 196] | ++ | ++
42 | COc1ccc(CNC(=O)c2c(Cl)ccnc2OC2CCC2)cc1F [Compound 197] | ++++ | ++++
43 | COc1ccc(CNC(=O)c2c(Cl)ccnc2OCC2CCC2)cc1F [Compound 198] | +++ | +++
44 | COc1ccc(CNC(=O)c2c(Cl)ccnc2OC2CCCC2)cc1F [Compound 199] | ++ | ++
45 | COc1ccc(CNC(=O)c2c(Cl)ccnc2OCC2CCCC2)cc1F [Compound 200] | ++ | ++
46 | CCC(CC)Oc1nccc(Cl)c1C(=O)NCc1ccc(OC)c(F)c1 [Compound 201] | ++ | ++
47 | CCC(C)Oc1nccc(Cl)c1C(=O)NCc1ccc(OC)c(F)c1 (stereo not drawn) [Compound 202] | + | ++
48 | COc1ccc(CNC(=O)c2c(Cl)ccnc2OCC(C)(C)C)cc1F [Compound 203] | ++ | ++

— patent publication US9670162B2, “Mitochondrial aldehyde dehyrogenase-2 modulators and methods of use thereof” (The Board of Trustees of the Leland Stanford Junior …, priority 2013, dated 2017)
